This is an account of results in PubChem BioAssay AID1259407 (Chemical Carcinogenesis Research Information System (CCRIS), 2018).

This data set has as its system CCRIS mutagenicity, Ames/micronucleus/aberration tests. The data set can be described thus: CCRIS mutagenicity studies.
[1] abbreviates: Test System: AMES SALMONELLA TYPHIMURIUM, Strain/Indicator: TA98, Metabolic Activation: NONE, Method: PREINCUBATION
Setting [2] is: Test System: AMES SALMONELLA TYPHIMURIUM, Strain/Indicator: TA100, Metabolic Activation: NONE, Method: PREINCUBATION
Where [3] appears, read: Test System: AMES SALMONELLA TYPHIMURIUM, Strain/Indicator: TA1535, Metabolic Activation: NONE, Method: PREINCUBATION

The source made the active and inactive calls. How the calls were made is not given here.

With `Oc1c(Cl)c(Cl)cc(Cl)c1Cl`, the mutagenic call is “inactive; negative” (End Point: IN VITRO CHROMOSOMAL ABERRATIONS, Test System: CHINESE HAMSTER LUNG CELLS (CHL), Metabolic Activation: NONE); “active; positive (structural changes)” (End Point: IN VITRO CHROMOSOMAL ABERRATIONS, Test System: CHINESE HAMSTER LUNG CELLS (CHL), Metabolic Activation: RAT, LIVER, S-9, KC-400); “inactive; negative” (End Point: IN VITRO CHROMOSOMAL ABERRATIONS, Test System: CHINESE HAMSTER OVARY CELLS (CHO), Metabolic Activation: NONE); “active; positive (structural changes)” (End Point: IN VITRO CHROMOSOMAL ABERRATIONS, Test System: CHINESE HAMSTER OVARY CELLS (CHO), Metabolic Activation: RAT, LIVER, S-9, AROCLOR 1254); “inactive; negative” (Test System: AMES SALMONELLA TYPHIMURIUM, Strain/Indicator: TA97, Metabolic Activation: HAMSTER, LIVER, S-9, AROCLOR 1254 (10%), Method: PREINCUBATION); “inactive; negative” (Test System: AMES SALMONELLA TYPHIMURIUM, Strain/Indicator: TA97, Metabolic Activation: HAMSTER, LIVER, S-9, AROCLOR 1254 (30%), Method: PREINCUBATION). The mutagenic call by setting is: (Test System: AMES SALMONELLA TYPHIMURIUM, Strain/Indicator: TA97, Metabolic Activation: NONE, Method: PREINCUBATION) “inactive; negative”; (Test System: AMES SALMONELLA TYPHIMURIUM, Strain/Indicator: TA97, Metabolic Activation: RAT, LIVER, S-9, AROCLOR 1254 (10%), Method: PREINCUBATION) “inactive; negative”; (Test System: AMES SALMONELLA TYPHIMURIUM, Strain/Indicator: TA97, Metabolic Activation: RAT, LIVER, S-9, AROCLOR 1254 (30%), Method: PREINCUBATION) “inactive; negative”; (Test System: AMES SALMONELLA TYPHIMURIUM, Strain/Indicator: TA98, Metabolic Activation: HAMSTER, LIVER, S-9, AROCLOR 1254 (10%), Method: PREINCUBATION) “inactive; negative”; (Test System: AMES SALMONELLA TYPHIMURIUM, Strain/Indicator: TA98, Metabolic Activation: HAMSTER, LIVER, S-9, AROCLOR 1254 (30%), Method: PREINCUBATION) “inactive; negative”; under setting [1], “inactive; negative”. In addition, the mutagenic call reads like this: (Test System: AMES SALMONELLA TYPHIMURIUM, Strain/Indicator: TA98, Metabolic Activation: RAT, LIVER, S-9, AROCLOR 1254 (10%), Method: PREINCUBATION) “inactive; negative”; (Test System: AMES SALMONELLA TYPHIMURIUM, Strain/Indicator: TA98, Metabolic Activation: RAT, LIVER, S-9, AROCLOR 1254 (30%), Method: PREINCUBATION) “inactive; negative”; (Test System: AMES SALMONELLA TYPHIMURIUM, Strain/Indicator: TA100, Metabolic Activation: HAMSTER, LIVER, S-9, AROCLOR 1254 (10%), Method: PREINCUBATION) “inactive; negative”; (Test System: AMES SALMONELLA TYPHIMURIUM, Strain/Indicator: TA100, Metabolic Activation: HAMSTER, LIVER, S-9, AROCLOR 1254 (30%), Method: PREINCUBATION) “inactive; negative”; under setting [2], “inactive; negative”; (Test System: AMES SALMONELLA TYPHIMURIUM, Strain/Indicator: TA100, Metabolic Activation: RAT, LIVER, S-9, AROCLOR 1254 (10%), Method: PREINCUBATION) “inactive; negative”. Further, the mutagenic call was “inactive; negative” (Test System: AMES SALMONELLA TYPHIMURIUM, Strain/Indicator: TA100, Metabolic Activation: RAT, LIVER, S-9, AROCLOR 1254 (30%), Method: PREINCUBATION); “inactive; negative” (Test System: AMES SALMONELLA TYPHIMURIUM, Strain/Indicator: TA1535, Metabolic Activation: HAMSTER, LIVER, S-9, AROCLOR 1254 (10%), Method: PREINCUBATION); “inactive; negative” (Test System: AMES SALMONELLA TYPHIMURIUM, Strain/Indicator: TA1535, Metabolic Activation: HAMSTER, LIVER, S-9, AROCLOR 1254 (30%), Method: PREINCUBATION); “inactive; negative” under setting [3]; “inactive; negative” (Test System: AMES SALMONELLA TYPHIMURIUM, Strain/Indicator: TA1535, Metabolic Activation: RAT, LIVER, S-9, AROCLOR 1254 (10%), Method: PREINCUBATION); “inactive; negative” (Test System: AMES SALMONELLA TYPHIMURIUM, Strain/Indicator: TA1535, Metabolic Activation: RAT, LIVER, S-9, AROCLOR 1254 (30%), Method: PREINCUBATION).

As to `CC1(C)SSC[C@@H](C(=O)O)NC1=O`, the mutagenic call was “inactive; negative” under setting [1]; “inactive; negative” under setting [2]; “inactive; negative” under setting [3]; “inactive; negative” (Test System: AMES SALMONELLA TYPHIMURIUM, Strain/Indicator: TA1537, Metabolic Activation: NONE, Method: PREINCUBATION); “inactive; negative” (Test System: AMES SALMONELLA TYPHIMURIUM, Strain/Indicator: TA1538, Metabolic Activation: NONE, Method: PREINCUBATION); “inactive; negative” (Test System: E. COLI, Strain/Indicator: WP2, Metabolic Activation: NONE, Method: PREINCUBATION). Besides, the mutagenic call (Test System: E. COLI, Strain/Indicator: WP2 UVRA, Metabolic Activation: NONE, Method: PREINCUBATION) is “inactive; negative”.

As for `CC(C)NCC(O)c1ccc2ccccc2c1` (stereo not given), the mutagenic call was “inactive; negative” (Test System: AMES SALMONELLA TYPHIMURIUM, Strain/Indicator: TA98, Metabolic Activation: NONE); “inactive; negative” (Test System: AMES SALMONELLA TYPHIMURIUM, Strain/Indicator: TA98, Metabolic Activation: RAT, LIVER, S-9, AROCLOR 1254); “inactive; negative” (Test System: AMES SALMONELLA TYPHIMURIUM, Strain/Indicator: TA100, Metabolic Activation: NONE); “inactive; negative” (Test System: AMES SALMONELLA TYPHIMURIUM, Strain/Indicator: TA100, Metabolic Activation: RAT, LIVER, S-9, AROCLOR 1254); “inactive; negative” (Test System: AMES SALMONELLA TYPHIMURIUM, Strain/Indicator: TA1535, Metabolic Activation: NONE); “inactive; negative” (Test System: AMES SALMONELLA TYPHIMURIUM, Strain/Indicator: TA1535, Metabolic Activation: RAT, LIVER, S-9, AROCLOR 1254). The mutagenic call is, setting by setting: (Test System: AMES SALMONELLA TYPHIMURIUM, Strain/Indicator: TA1537, Metabolic Activation: NONE) “inactive; negative”; (Test System: AMES SALMONELLA TYPHIMURIUM, Strain/Indicator: TA1537, Metabolic Activation: RAT, LIVER, S-9, AROCLOR 1254) “inactive; negative”.

On to `CC(C(=O)O)c1cccc(C(=O)c2ccccc2)c1` (stereo not given), for which the mutagenic call is “inactive; negative” (Test System: AMES SALMONELLA TYPHIMURIUM, Strain/Indicator: TA97A, Metabolic Activation: NONE, Method: STANDARD PLATE); “inactive; negative” (Test System: AMES SALMONELLA TYPHIMURIUM, Strain/Indicator: TA97A, Metabolic Activation: RAT, LIVER, S-9, PHENOBARBITAL, Method: STANDARD PLATE); “inactive; negative” (Test System: AMES SALMONELLA TYPHIMURIUM, Strain/Indicator: TA100, Metabolic Activation: NONE, Method: STANDARD PLATE); “inactive; negative” (Test System: AMES SALMONELLA TYPHIMURIUM, Strain/Indicator: TA100, Metabolic Activation: RAT, LIVER, S-9, PHENOBARBITAL, Method: STANDARD PLATE); “inactive; negative” (Test System: AMES SALMONELLA TYPHIMURIUM, Strain/Indicator: TA102, Metabolic Activation: NONE, Method: STANDARD PLATE); “inactive; negative” (Test System: AMES SALMONELLA TYPHIMURIUM, Strain/Indicator: TA102, Metabolic Activation: RAT, LIVER, S-9, PHENOBARBITAL, Method: STANDARD PLATE).
